# Source: patent US20250170127A1, “RE-SENSITIZING MULTIDRUG-RESISTANT (MDR) GRAM-NEGATIVE BACTERIA TO COLISTIN USING IONOPHORES” (The Regents of the University of Colorado, a body corporate, priority 2022, published 2025)
# Several values for one entry are separate records, joined by “and”; a condition that tells them apart may be missing. Identical values can stand only once.
# Columns and labels:
# E. coli AR-0493 [1] = test: Minimum re-sensitizing concentration (MRC) in the presence of colistin; type: cell-based; conditions: in AR-0493
# Method: These 10 compounds were tested for their MICs and minimum re-sensitizing concentrations (MRCs) in the presence colistin at 2 μg/mL in E. coli AR-0493.
# The present inventors further conducted MRC screens of selected compounds from groups 2-5 in AR-0493. Compound were tested against AR-0493 with compound X+2 μg/mL Colistin.
# All compounds were tested for their respective minimum resensitizing concentrations (MRCs) for colistin against E. coli. AR0493, a MDR strain from CDC and FDA Antibiotic Resistance Bank. […] For the symmetrical bisanilino series, 7a-p, electron-donating alkyl and alkoxy groups (entries 7a-g, Table 5) at various positions of the phenyl rings were investigated. […] Three asymmetric bisanilino analogs (7q-s, Table 5) were synthesized based on the SARs of the monoanilino analogs 8a-p (vide infra).
# (§1) General Methods. MDR strains E. coli AR-0493, AR-0346, and AR-0538, Salmonella Enteritidis AR-0496, Salmonella Typhimurium AR-0635, K. pneumoniae AR-0497, A. baumannii AR-0300 and AR-0310 were all obtained from the CDC & FDA Antibiotic Resistance Isolate Bank. E. coli K-12 was a gift from the Copley lab (Department of MCD Biology, University of Colorado Boulder). HeLa cells were purchased from the ATCC. All bacterial strains were grown on trypticase soy agar supplemented with 5% sheep blood (BAP). Bacteria were then cultured in Luria-Bertani (LB) medium at 35° C. until they achieve the log phase before screening or antimicrobial testing using CAMHB media. MIC, MRC, and checkerboard analyses and mammalian growth inhibition analyses in Hela cells were performed as described previously. More details are given in Supporting information.
# [2] = tested on: MDR Gram-negative bacteria; test: MICs across a panel of MDR Gram-negative bacteria (summary statements); type: cell-based
# Text: (§2) To investigate the scope of the colistin-potentiation effect of compound 3, the present inventors screened a panel of MDR Gram-negative bacteria obtained from the CDC and FDA Antibiotic Resistance Bank. These include a variety of Enterobacteriaceae spp., such as E. coli AR-0346 and AR-0538, K. pneumoniae AR-0497, Salmonella Enteritidis AR-0496, and Salmonella Typhimurium AR-0635. These strains all express the mcr genes (e.g., mcr-1, mcr-2, and mcr-4) and are resistant to colistin with its MICs of 8-16 μg/mL (Table 2). […] The only exception is Salmonella Typhimurium AR-0635, which expresses mcr-4 gene. […]. […]. Furthermore, the present inventors also tested the activity of colistin in the presence or absence of 1 μg/mL compound 3 in a wild-type E. coli K-12. […] The MICs of compound 3 in all these strains were >64 μg/mL, the highest concentration tested.
# (§3) To evaluate the mammalian toxicity of these analogs, Applicants tested them in cell viability assay using human cervical adenocarcinoma HeLa cells. Their respective half maximal growth inhibition concentration (GI50) was calculated using KaleidaGraph. The selectivity index (SI) for each compound was also calculated as the ratio of their GI50 and MRC. […] Therefore, Applicants selected two bisanilino analogs, 7l and 7m, that bear chlorines at the meta- and para-positions, respectively, of the phenyl groups for further characterization studies. […]. […] Their mammalian toxicities were also evaluated, and SIs calculated. […] Applicants we next explored the scope of analogs 71 and 7m their colistin-potentiating activity in 8 different MDR Gram negative bacteria with diverse genetic backgrounds and resistance mechanisms (Table 7). All strains were obtained from CDC and FDA Antibiotic Resistance Bank. For example, E. coli AR-0493 and K. pneumoniae AR-0497 carry the plasmid that contains the most prevalent mcr-1 gene. E. coli AR-0538, Salmonella Typhimurium AR-0539 and AR-0635 contain the mcr-2, 3, and 4 genes, respectively. These genes encode the phosphoethanolamine transferase, which was originated form the chromosome of A. baumannii, such as AR-0310. […]. A. baumannii AR-0310 appears more sensitive to these two compounds and the MICs of colistin was reduced to 0.25 μg/mL.
# as §1
# E. coli AR-0493 [3] = test: MIC, CLSI broth microdilution, substance alone; type: cell-based; conditions: Escherichia coli, AR0493, read-out: MIC
# Method: A MDR E. coli strain AR-0493 (a.k.a., ATCC BAA-3170) was obtained from the CDC and FDA Antibiotic Resistance Bank and used for the initial screen. […] Considering the difficulties on the discovery of novel antimicrobial reagents against Gram-negative bacteria, we chose to screen the fragment-based library of 3,200 compounds from TimTec (Tampa, FL). […] The screen used a modified broth microdilution assay.
# These 10 compounds were tested for their MICs and minimum re-sensitizing concentrations (MRCs) in the presence colistin at 2 μg/mL in E. coli AR-0493. […] To evaluate their toxicity in mammalian cells, the present inventors treated human epithelial adenocarcinoma HeLa cells with each compound at a wide range of concentrations. […]
# as §1
# [4] = tested on: Salmonella Typhimurium AR-0635; test: Colistin MIC in the absence or presence of RMA compound; type: cell-based; conditions: Salmonella Typhimurium AR-0635
# Text: as §2, §3, §1
# K. pneumoniae AR-0497 = test: as above; type: cell-based; conditions: K. pneumoniae AR-0497
# Text: as §2, §3, §1
# E. coli AR-0538 = test: as above; type: cell-based; conditions: E. coli AR-0538
# Text: as §2, §3, §1
# E. coli AR-0493 [5] = test: as above; type: cell-based; conditions: E. coli AR-0493
# Text: as §2, §3, §1
# A. baumannii AR-0310 = test: as above; type: cell-based
# Text: as §2, §3, §1
# HeLa cells = test: in vitro; type: cell-based, human; conditions: GI50 in HeLa / MRC in AR-0493
# Method: (§4) These 10 compounds were tested for their MICs and minimum re-sensitizing concentrations (MRCs) in the presence colistin at 2 μg/mL in E. coli AR-0493. […] To evaluate their toxicity in mammalian cells, the present inventors treated human epithelial adenocarcinoma HeLa cells with each compound at a wide range of concentrations.
# as §3, §1
# in vitro = type: cell-based, human; conditions: human
# Method: as §4, §3, §1
# E. coli AR-0346 = test: Colistin MIC in the absence or presence of RMA compound; type: cell-based; conditions: E. coli AR-0346
# Text: as §2, §1
# A. baumannii AR-0300 = test: as above; type: cell-based
# Text: as §2, §1
# E. coli K-12 = test: as above; type: cell-based; conditions: in the presence of 1 μg/mL of compound 3; E. coli K-12
# Text: as §2, §1
# [6] = tested on: Salmonella Enteritidis AR-0496; test: as above; type: cell-based; conditions: Salmonella Enteritidis AR-0496
# Text: as §2, §1
# E. coli AR-0493 [7] = test: Checkerboard broth microdilution assay with colistin; type: cell-based
# Method: FIG. 2. […] AR-0493. Data represent the mean OD (600 nm) in two biological replicates.
# To further confirm the synergistic effect of compound 3 and colistin, the checkerboard broth microdilution assay was performed (FIG. 2).
# as §1
# P. aeruginosa AR-0768 = test: Colistin MIC in the absence or presence of RMA compound; type: cell-based
# Text: as §2
# [8] = 1 μg/mL compound 3, almost all mcr-expressing Enterobacteriaceae strains of Table 2
# [9] = in the presence of 1 μg/mL of compound 3
smiles,measurement,setting,value
Cc1cccc(Nc2nc3nonc3nc2Nc2cccc(C)c2)c1 [Compound 3],MRC,E. coli AR-0493 [1],0.5 µg/mL
same,Colistin MIC (+3),[2]; [8],0.5 to 1 mg/L
same,folds of potentiation for colistin,[2]; [8],16 folds
same,MIC,"[2]; compound alone, all strains of Table 2, highest concentration tested",> 64 mg/L
same,MIC,E. coli AR-0493 [3],> 64 mg/L
same,Folds of potentiation,[4]; 2 μg/mL of compound 3,16 folds
same,Colistin MIC (+3),[4]; [9],4 µg/mL
same,Colistin MIC (+3),[4]; in the presence of 2 μg/mL of compound 3,1 μg/mL and 1^c μg/mL
same,Folds of potentiation,K. pneumoniae AR-0497; 1 μg/mL of compound 3,16 folds
same,Colistin MIC (+3),K. pneumoniae AR-0497; [9],0.5 mg/L
same,Folds of potentiation,E. coli AR-0538; 1 μg/mL of compound 3,16 folds
same,Colistin MIC (+3),E. coli AR-0538; [9],0.5 mg/L
same,Folds of potentiation,E. coli AR-0493 [5]; 1 μg/mL of compound 3,16 folds
same,Colistin MIC (+3),E. coli AR-0493 [5]; [9],1 mg/L
same,Folds of potentiation,A. baumannii AR-0310; 1 μg/mL of compound 3,32 folds
same,Colistin MIC (+3),A. baumannii AR-0310; [9],0.5 mg/L
same,"SI (Selective Index), ratio of GI50 and MRC",HeLa cells,30
same,GI50 at 24 h,in vitro,15 mg/L
same,Folds of potentiation,E. coli AR-0346; 1 μg/mL of compound 3,16 folds
same,Colistin MIC (+3),E. coli AR-0346; [9],0.5 mg/L
same,Folds of potentiation,A. baumannii AR-0300; 1 μg/mL of compound 3,32 folds
same,Colistin MIC (+3),A. baumannii AR-0300; [9],0.25 mg/L
same,Colistin MIC (+3),E. coli K-12,0.25 mg/L
same,Folds of potentiation,[6]; 1 μg/mL of compound 3,16 folds
same,Colistin MIC (+3),[6]; [9],1 mg/L
same,fractional inhibitory concentration index (FICI),"E. coli AR-0493 [7]; compound and colistin, E. coli AR-0493",< 0.06
same,potentiation of colistin in checkerboard assay,"E. coli AR-0493 [7]; mean OD (600 nm), FIG. 2",dose-dependent potentiation of colistin
same,Folds of potentiation,P. aeruginosa AR-0768; 1 μg/mL of compound 3,4 folds
same,Colistin MIC (+3),P. aeruginosa AR-0768; [9],4 mg/L
